Experimental data as given in paper PMC3767324, “Synthesis, Characterization, and BSA Binding Studies of Some New Benzamides Related to Schiff Base” (ISRN Organic Chemistry, 2013).
In brackets after ≈: the same amount, converted by molar mass.

Key:
[1] = tested on: Bacillus subtilis (NCIM 2999); experiment: minimum inhibitory concentration by dilution method; type: cell-based; settings: Bacillus subtilis, NCIM2999; B. subtilis; dilution method; average of three replicates; read-out: MIC
Experimental: (§1) The in vitro antimicrobial screening effects of the compounds (3 and 5a–j) were individually tested against a panel of bacteria and fungi including Staphylococcus aureus (NCIM 5021), Bacillus subtilis (NCIM 2999), Pseudomonas aeruginosa (NCIM 5029), Escherichia coli (NCIM 2574), Candida. albicans (NCIM 3471), and Aspergillus flavus (NCIM 524). Microbial strains were cultured overnight at 37°C in nutrient and potato dextrose agar medium. All the pure microbial strains were obtained from National Chemical Laboratory (NCL), Pune, India.
(§2) The minimum inhibitory concentration of the synthesized compounds was determined by dilution method. The compounds were dissolved and then diluted using DMSO; two-fold serial concentrations of the compounds were employed to determine the MIC. In this method, the test concentrations of chemically synthesized compounds were made from 5 to 125 μg/mL.

[2] = tested on: Escherichia coli (NCIM 2574); experiment: as above; type: cell-based; settings: Escherichia coli, NCIM2574; E. coli; dilution method; average of three replicates; read-out: MIC
Experimental: as §1, §2

[3] = tested on: Pseudomonas aeruginosa (NCIM 5029); experiment: as above; type: cell-based; settings: Pseudomonas aeruginosa, NCIM5029; P. aeruginosa; dilution method; average of three replicates; read-out: MIC
Experimental: as §1, §2

[4] = tested on: A. niger; experiment: as above; type: cell-based; settings: Aspergillus niger; A. niger; dilution method; average of three replicates; read-out: MIC
Experimental: [The procedure below names another organism; the source lists this organism under the same test.] as §1, §2

[5] = tested on: Aspergillus flavus (NCIM 524); experiment: as above; type: cell-based; settings: Aspergillus flavus, NCIM524; A. flavus; dilution method; average of three replicates; read-out: MIC
Experimental: as §1, §2

[6] = tested on: Staphylococcus aureus (NCIM 5021); experiment: as above; type: cell-based; settings: Staphylococcus aureus, NCIM5021; S. aureus; dilution method; average of three replicates; read-out: MIC
Experimental: as §1, §2

[7] = superoxide radical scavenging assay (NBT, xanthine-xanthine oxidase system); type: biochemical; settings: NBT reduction, pH 7.8, 560 nm, three replicates
Experimental: Superoxide radical scavenging activity was measured as described by Kovala-Demertzi et al., (2004). The assay is based on the reduction of nitroblue tetrazolium (NBT) by superoxide ions generated by the xanthine-xanthine oxidase system (X–XO). The reaction system contained 0.2 mM xanthine and 0.6 mM NBT in 0.1 M phosphate buffer, pH 7.8. The tested compounds were dissolved in methanol. The reaction was started by addition of XO (0.07 U mL^−1), an activity which allowed to yield the absorbance change between 0.03 and 0.04 per minute, at 560 nm. The extent of NBT reduction was followed spectrophotometrically, by measuring the increase of the absorbance at 560 nm. All the experiments were replicated three times. The IC50 of each compound was defined as the concentration which inhibited 50% of the NBT reduction by O2 ^•− produced in the X–XO system.
Superoxide anion radical is normally initially formed, and its effects can be magnified because it produces other kinds of free radicals and oxidizing agents. The enzymatic superoxide anion radical was generated by the xanthine/xanthine oxidase reaction system. The production of superoxide was estimated by the nitroblue tetrazolium method. […] Differently, in the m-position, methoxy and hydroxyl groups act as an electron-withdrawing properties, ([…]), which are possible for providing a destabilizing effect.

[8] = tested on: Bacillus subtilis (NCIM 2999); experiment: agar disc diffusion, zone of inhibition; type: cell-based; settings: Bacillus subtilis, NCIM2999; B. subtilis; discs 6 mm, test compounds 100 µg/mL in DMSO, standards 10 µg/disc; 37°C 24 h; average of three replicates; read-out: zone of inhibition
Experimental: as §1
(§3) The antibacterial activity of compounds was determined by agar disc diffusion method. Briefly, a suspension of tested bacterial strains was spread on the nutrient agar medium and potato dextrose agar for fungi. The discs (6 mm in diameter) impregnated with test chemicals each dissolved in concentration (100 μg/mL in DMSO) were placed on the inoculated agar and these plates were kept at 4°C for 2 h. The plate was incubated at 37°C for 24 h in case of bacteria and 48 h at 28°C in case of fungi. streptomycin (10 μg/disc) and fluconazole (10 μg/disc) were used as the standards for antibacterial and antifungal activity, respectively. All the samples were performed in triplicate and the zone of inhibition was measured in millimeters.

[9] = tested on: Escherichia coli (NCIM 2574); experiment: agar disc diffusion, zone of inhibition; type: cell-based; settings: Escherichia coli, NCIM2574; E. coli; discs 6 mm, test compounds 100 µg/mL in DMSO, standards 10 µg/disc; 37°C 24 h; average of three replicates; read-out: zone of inhibition
Experimental: as §1, §3

[10] = tested on: Pseudomonas aeruginosa (NCIM 5029); experiment: agar disc diffusion, zone of inhibition; type: cell-based; settings: Pseudomonas aeruginosa, NCIM5029; P. aeruginosa; discs 6 mm, test compounds 100 µg/mL in DMSO, standards 10 µg/disc; 37°C 24 h; average of three replicates; read-out: zone of inhibition
Experimental: as §1, §3

[11] = tested on: A. niger; experiment: agar disc diffusion, zone of inhibition; type: cell-based; settings: Aspergillus niger; A. niger; discs 6 mm, test compounds 100 µg/mL in DMSO, standards 10 µg/disc; 28°C 48 h; average of three replicates; read-out: zone of inhibition
Experimental: [The procedure below names another organism; the source lists this organism under the same test.] as §1, §3

[12] = tested on: Aspergillus flavus (NCIM 524); experiment: agar disc diffusion, zone of inhibition; type: cell-based; settings: Aspergillus flavus, NCIM524; A. flavus; discs 6 mm, test compounds 100 µg/mL in DMSO, standards 10 µg/disc; 28°C 48 h; average of three replicates; read-out: zone of inhibition
Experimental: as §1, §3

[13] = tested on: Staphylococcus aureus (NCIM 5021); experiment: agar disc diffusion, zone of inhibition; type: cell-based; settings: Staphylococcus aureus, NCIM5021; S. aureus; discs 6 mm, test compounds 100 µg/mL in DMSO, standards 10 µg/disc; 37°C 24 h; average of three replicates; read-out: zone of inhibition
Experimental: as §1, §3

[14] = DPPH free radical scavenging activity; settings: DPPH 0.1 mM, absorbance at 517 nm; triplicate, mean ± SD
Experimental: The capacity to scavenge the stable free radical 2,2-diphenyl-1-picrylhydrazyl (DPPH) was monitored according to the Blois method. The test samples (10–100 μL) were mixed with 1 mL of DPPH (0.1 mM) solution and filled up with methanol to a final volume of 4 mL. Absorbance of the resulting solution was measured at 517 nm in a visible spectrophotometer (Model 166, Systronics, India). The free radical scavenging rate of the reaction solution was calculated as a percentage (%) of DPPH decolouration using the equation (1) I(%)=(Ablank−Asample/Ablank)×100, where A blank is the absorbance of the control reaction mixture excluding the test compounds, and A sample is the absorbance of the test compounds. Radical scavenging potential was expressed as IC50 value, which represents the sample concentration at which 50% of the DPPH radicals were scavenged. Tests were carried out in triplicate and the results were expressed as mean values ± standard deviations.
DPPH radical scavenging activity evaluation is a standard assay in antioxidant activity studies and offers a rapid technique for screening the radical scavenging activity of specific compounds [24]. The free radical scavenging activity of newly synthesized compounds was tested by their ability to bleach the stable radical DPPH. The activity was monitored by following the absorption at 517 nm in a visible spectrophotometer. In the presence of any free radical scavenger, this odd electron pairs up and causes the diminishing of absorption band which is proportional to the number of electrons taken up. The activity was studied at different concentrations for each compound. […] Resulting from a color change from purple to yellow the absorbance decreased when the antioxidant molecule can quench DPPH free radical through donation of hydrogen atom or by electron donating to form a stable DPPH molecule.

| Compound | MIC [1] | MIC [2] | MIC [3] | MIC [4] | MIC [5] | MIC [6] | IC50 Superoxide [7] | zone of inhibition at 100 µg/mL [8] | zone of inhibition at 100 µg/mL [9] | zone of inhibition at 100 µg/mL [10] | zone of inhibition at 100 µg/mL [11] | zone of inhibition at 100 µg/mL [12] | zone of inhibition at 100 µg/mL [13] | IC50 DPPH [14] | melting point |
| --- | --- | --- | --- | --- | --- | --- | --- | --- | --- | --- | --- | --- | --- | --- | --- |
| CC(=O)Nc1ccc(N=Cc2cc3ccccc3o2)cc1 [Compound 3, N-(4-((benzofuran-2-ylmethylene)amino)phenyl)acetamide] | 75 µg/mL (≈ 269 µM) | > 100 µg/mL | > 100 µg/mL | 75 µg/mL (≈ 269 µM) | 75 µg/mL (≈ 269 µM) | 75 µg/mL (≈ 269 µM) | 85.1 ± 0.33 µg/mL (≈ 306 µM) | 7 mm | 11 mm | 10 mm | 12.4 mm | 12.5 mm | 8 mm | 95.3 ± 0.76 µg/mL (≈ 342 µM) | – |
| CC(=O)N(C(=O)c1ccc([N+](=O)[O-])cc1)c1ccc(N=Cc2cc3ccccc3o2)cc1 [Compound 5e, N-acetyl-N-(4-((benzofuran-2-ylmethylene)amino)phenyl)-4-nitrobenzamide] | 15 µg/mL (≈ 35.1 µM) | 25 µg/mL (≈ 58.5 µM) | 25 µg/mL (≈ 58.5 µM) | 20 µg/mL (≈ 46.8 µM) | 20 µg/mL (≈ 46.8 µM) | 15 µg/mL (≈ 35.1 µM) | 79.2 ± 0.24 µg/mL (≈ 185 µM) | 11 mm | 9 mm | 11 mm | 14.1 mm | 13.6 mm | 14 mm | 87.4 ± 0.31 µg/mL (≈ 204 µM) | 182 °C |
| OC(Cn1cncn1)(Cn1cncn1)c1ccc(F)cc1F [Fluconazole, fluconazole, reference compound] | – | – | – | 5 µg/mL (≈ 16.3 µM) | 5 µg/mL (≈ 16.3 µM) | – | – | – | – | – | 16 mm | 19 mm | – | – | – |
| CC(=O)N(C(=O)Cc1ccccc1)c1ccc(N=Cc2cc3ccccc3o2)cc1 [Compound 5b, N-acetyl-N-(4-((benzofuran-2-ylmethylene)amino)phenyl)-2-phenylacetamide] | 30 µg/mL (≈ 75.7 µM) | 50 µg/mL (≈ 126 µM) | 30 µg/mL (≈ 75.7 µM) | 25 µg/mL (≈ 63.1 µM) | 25 µg/mL (≈ 63.1 µM) | 50 µg/mL (≈ 126 µM) | 92.0 ± 0.35 µg/mL (≈ 232 µM) | 10 mm | 10 mm | 11 mm | 12 mm | 15 mm | 10 mm | 85.3 ± 0.14 µg/mL (≈ 215 µM) | 193 °C |
